Non-standard residues stand in square brackets, D forms with d. Residues, ends and D or L forms follow the SMILES beside them. *: point of attachment. Boc = CC(C)(C)OC(=O)*; OBn = c1ccc(CO*)cc1; For = O=C*
Molecular target: T1, Substance P receptor (Cavia porcellus, UniProt P30547)
T1 construct: from tissue; host or cells: guinea pig (male Hartley) trachea and lung, crude membrane fraction
Assay: 3H-Substance P receptor binding to guinea pig crude lung membrane preparation
Details: test compound 1 μg/ml; 3H-substance P 1 nM; guinea pig crude lung membrane fraction; 4° C., 30 minutes
Description: 1. ^3 H-Substance P receptor binding
(a) Crude lung membrane preparation
Male Hartley strain guinea pigs were sacrificed by decapitation. The trachea and lung were removed and homogenized in buffer (0.25M sucrose, 50 mM Tris-HCl pH 7.5, 0.1 mM EDTA) by using Polytoron (Kinematica). The homogenate was centrifuged (1000 xg, 10 min) to remove tissue clumps and the supernatant was centrifuges (14000 xg 20 min) to yield pellets. The pellets were resuspended in buffer (5 mM Tris-HCl pH 7.5), homogenized with a teflon homogenizer and centrifuged (14000 xg, 20 min) to yield pellets which were referred to as crude membrane fractions. The obtained pellets were stored at -70° C. until use.
(b) ^3 H-Substance P binding to preparative membrane
Frozen crude membrane fractions were thawed and resuspended in Medium 1 (50 mM Tris-HCl pH 7.5, 5 mM MnCl2, 0.02% BSA, 2 μg/ml chymostatin, 4 μg/ml leupeptin, 40 μg/ml bacitracin.) ^3 H-substance P (1 nM) was incubated with 100 μl of the membrane preparation in Medium 1 at 4° C. for 30 minutes in a final volume of 500 µl. At the end of the incubation period, reaction mixture was quickly filtered over a Whatman GF/B glass filter (pretreated with 0.1% polyethylene imine for 3 hours prior to use) under aspiration. The filters were then washed four times with 5 ml of the buffer (50 mM Tris-HCl, pH 7.5). The radioactivity was counted in 5 ml of Aquazol-2 in Packerd scintillation counter (Packerd TRI-CARB 4530).

T1 sequence (P30547 whole entry): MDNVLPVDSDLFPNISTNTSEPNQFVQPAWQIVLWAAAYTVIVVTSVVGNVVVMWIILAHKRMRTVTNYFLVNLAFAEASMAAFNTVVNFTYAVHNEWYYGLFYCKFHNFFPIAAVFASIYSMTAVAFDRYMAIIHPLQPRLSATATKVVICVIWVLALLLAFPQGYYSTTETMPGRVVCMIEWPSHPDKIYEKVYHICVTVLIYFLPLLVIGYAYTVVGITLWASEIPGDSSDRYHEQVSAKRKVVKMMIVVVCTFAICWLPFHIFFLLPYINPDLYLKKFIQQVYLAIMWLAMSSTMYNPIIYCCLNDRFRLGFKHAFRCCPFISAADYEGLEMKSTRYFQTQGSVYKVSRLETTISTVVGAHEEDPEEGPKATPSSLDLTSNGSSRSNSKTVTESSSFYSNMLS

Molecule	inhibition at 1 µg/mL	Inhibition (%)
C[C@@H](O)[C@H](NC(=O)OC(C)(C)C)C(=O)N[C@H](Cc1cn(C=O)c2ccccc12)C(=O)N[C@@H](Cc1ccccc1)C(=O)N(C)Cc1ccccc1 [Test Compound (i), Boc-Thr-D-Trp(CHO)-Phe-NMeBzl]	100%	–
CC(=O)N[C@@H](CCC(=O)N(C)C)C(=O)N[C@H](Cc1cn(C=O)c2ccccc12)C(=O)N[C@@H](Cc1ccccc1)C(=O)N(C)Cc1ccccc1 [Test Compound (l), Ac-Glu(NMe2)-D-Trp(CHO)-Phe-NMeBzl]	100%	–
CN(C)C(=O)CC[C@H](NC(=O)OC(C)(C)C)C(=O)N[C@H](Cc1cn(C=O)c2ccccc12)C(=O)N[C@@H](Cc1ccccc1)C(=O)N(C)Cc1ccccc1 [Test Compound (j), Boc-Glu(NMe2)-D-Trp(CHO)-Phe-NMeBzl]	100%	–
CC(C)(C)OC(=O)N[C@@H](CC(N)=O)C(=O)N[C@H](Cc1cn(C=O)c2ccccc12)C(=O)N[C@@H](Cc1ccccc1)C(=O)OCc1ccccc1 [Test Compound (d), Boc-Asn-D-Trp(CHO)-Phe-OBzl] (Boc-Asn-[dW](For)-Phe-OBn)	99%	–
CC(=O)N[C@H](C(=O)N[C@H](Cc1cn(C=O)c2ccccc12)C(=O)N[C@@H](Cc1ccccc1)C(=O)N(C)Cc1ccccc1)[C@@H](C)O [Test Compound (k), Ac-Thr-D-Trp(CHO)-Phe-NMeBzl]	100%	–
CC(C)(C)OC(=O)N[C@@H](CO)C(=O)N[C@H](Cc1cn(C=O)c2ccccc12)C(=O)N[C@@H](Cc1ccccc1)C(=O)OCc1ccccc1 [Test Compound (e), Boc-Ser-D-Trp(CHO)-Phe-OBzl] (Boc-Ser-[dW](For)-Phe-OBn)	99%	–
CN(Cc1ccccc1)C(=O)[C@H](Cc1ccccc1)NC(=O)[C@@H](Cc1cn(C=O)c2ccccc12)NC(=O)[C@H](CCC(N)=O)NC(=O)OC(C)(C)C [Test Compound (h), Boc-Gln-D-Trp(CHO)-Phe-NMeBzl]	100%	–
CN(C)C(=O)CC[C@H](NC(=O)OC(C)(C)C)C(=O)N[C@H](Cc1cn(C=O)c2ccccc12)C(=O)N[C@@H](Cc1ccccc1)C(=O)OCc1ccccc1 [Test Compound (f), Boc-Glu(NMe2)-D-Trp(CHO)-Phe-OBzl] (Boc-Glu(NMe2)-[dW](For)-Phe-OBn)	100%	–
CC(C)(C)OC(=O)N[C@@H](CCC(N)=O)C(=O)N[C@H](Cc1cn(C=O)c2ccccc12)C(=O)N[C@@H](Cc1ccccc1)C(=O)OCc1ccccc1 [Test Compound (a), Boc-Gln-D-Trp(CHO)-Phe-OBzl] (Boc-Gln-[dW](For)-Phe-OBn)	100%	–
CC(=O)N[C@@H](CCC(N)=O)C(=O)N[C@H](Cc1cn(C=O)c2ccccc12)C(=O)N[C@@H](Cc1ccccc1)C(=O)OCc1ccccc1 [Test Compound (b), Ac-Gln-D-Trp(CHO)-Phe-OBzl] (Ac-Gln-[dW](For)-Phe-OBn)	100%	–
Z-Gln-D-Trp(CHO) -Phe-OBzl [Test Compound (c)]	–	93%
C[C@@H](O)[C@H](NC(=O)OC(C)(C)C)C(=O)N[C@H](Cc1cn(C=O)c2ccccc12)C(=O)N[C@@H](Cc1ccccc1)C(=O)OCc1ccccc1 [Test Compound (g), Boc-Thr-D-Trp(CHO)-Phe-OBzl] (Boc-Thr-[dW](For)-Phe-OBn)	100%	–
